Results reported in patent US20190187129A1, “CANCER MODELING PLATFORMS AND METHODS OF USING THE SAME” (Wake Forest University Health Sciences, priority 2016, published 2019).

Key:
Assay in all cases: 3D hyaluronan-based hydrogel construct drug screen, MTS assay
HCT116 cells = details: Homo sapiens, HCT-116, 3D, read-out: percent relative cell viability (MTS, relative to control)
Description: Polydimethylsiloxane, or PDMS, was used to coat the bottom of the wells. Cells were embedded within the hyaluronan-based hydrogel and were given 5 days to acclimate to their three-dimensional environment and on day 5 were administered different anticancer drug solutions (FIG. 7, panel A). […], Dabrafenib had greater efficacy in targeting the HCT116 and SW480 cell lines, which had relative cellular viability values of 38% and 43%, as opposed to the HT29 and CACO2 cell lines, which had higher cell viability values of 93% and 75%. […]
(§1) Well Coating with PDMS and Cell Isolation: Polydimethylsiloxane, or PDMS, (DOW Corning, North Carolina, USA) was used at a 1:10 curing agent ratio to coat the bottom of the 96-well plates and the plates were then placed in a 80° C. oven for at least one hour. Cells were passaged in the same methods previously mentioned (A) with the desire to place 10 μL 3D hyaluronan-based hydrogel constructs containing 100,000 cells each ([…]) into the wells of a 96-wells plate for all four colorectal cancer cell types. Depending on the cell count, a desired number of cells were isolated in new 15 mL centrifuge tubes as cell-media solution and underwent centrifugation.
(§2) Hydrogel Components of the Single-Cell Type Constructs: The hyaluronic acid-based hydrogel (ESI BIO, California, USA) was produced using a mixture of three components: Heprasil, Gelin-S, and Extralink PEGDA 2-ARM Acrylate crosslinker. These components were mixed in a 2:2:1 ratio by volume. 0.1% Irgacure photoinitiator (Sigma-Aldrich, Missouri, USA) was added to each of the three components prior to their mixture and the three components were placed in a 37° C. incubator for a ˜30 minutes to solubilize.
(§3) Forming Organoid Constructs: Once solubilized, the media was aspirated from the 15 mL centrifuge tube (post-centrifugation) and the cells were isolated as a pellet. The hydrogel components were added directly into the centrifuge tube containing the cells and the cells were carefully resuspended in the mixture. 10 μL of the gel-cell solution was placed in the center of the wells on the PDMS coating. This was continued for all wells containing cells and was repeated for each cell type. After this point, the gel can be exposed to UV light from a BlueWave 200 spot light (Dymax, Connecticut, USA) to solidify the hydrogel, or one can wait ˜30 minutes for the gel to form on its own. DMEM-10 media was then placed in the wells and the constructs were incubated for 5 days.
(§4) Anticancer Drug Screening and Cell Viability: The same five anticancer drugs were added on Day 5 and the cell viability assay occurred on Day 7.

CACO2 cells = details: Homo sapiens, Caco-2, 3D, read-out: percent relative cell viability (MTS, relative to control)
Description: (§5) Polydimethylsiloxane, or PDMS, was used to coat the bottom of the wells. Cells were embedded within the hyaluronan-based hydrogel and were given 5 days to acclimate to their three-dimensional environment and on day 5 were administered different anticancer drug solutions (FIG. 7, panel A). […] At 100 μM concentrations of Regorafenib and Sorafenib, cellular viability remained below 25% that of the control for all four of the colorectal cancer cell lines utilized. The only exception to this was when 100 μM Regorafenib was administered to CACO2 cells and the percent relative cell viability rose to approximately 48%. […] At a 100 μM concentration, Dabrafenib had greater efficacy in targeting the HCT116 and SW480 cell lines, which had relative cellular viability values of 38% and 43%, as opposed to the HT29 and CACO2 cell lines, which had higher cell viability values of 93% and 75%. 100 μM concentrations of Trametinib produced relative cellular viability results that fell within a narrow range for the four colorectal cell lines with values of 54% for SW480 cells and 74% for HT29 cells.
as §1, §2
Forming Organoid Constructs: Once solubilized, the media was aspirated from the 15 mL centrifuge tube (post-centrifugation) and the cells were isolated as a pellet. The hydrogel components were added directly into the centrifuge tube containing the cells and the cells were carefully resuspended in the mixture. 10 μL of the gel-cell solution was placed in the center of the wells on the PDMS coating. This was continued for all wells containing cells and was repeated for each cell type. […]

HT29 cells = type: cell-based; details: Homo sapiens
Description: as §5, §1, §2, §3, §4

SW480 cells = type: cell-based; details: Homo sapiens
Description: as §5, §1, §2, §3, §4

Structure (SMILES)	viability at 10000 µM (HCT116 cells; 10 mM, HCT116) [%]	viability at 100000 µM (HCT116 cells; 100 mM, HCT116) [%]	viability at 10000 µM (CACO2 cells; 10 mM, CACO2) [%]	viability at 10000 µM (HT29 cells; HT-29, 10 mM, HT29, read-out: percent relative cell viability (MTS, relative to control)) [%]	viability at 10000 µM (SW480 cells; 10 mM, SW480, read-out: percent relative cell viability (MTS, relative to control)) [%]	viability at 100000 µM (SW480 cells; 100 mM, SW480, read-out: percent relative cell viability (MTS, relative to control)) [%]	viability at 100 µM (HCT116 cells; 100 μM, HCT116, drug day 5, assay day 7) [%]	viability at 100 µM (CACO2 cells; 100 μM, CACO2, drug day 5, assay day 7) [%]	viability at 100 µM (HT29 cells; HT-29, 100 μM, HT29, drug day 5, assay day 7, read-out: percent relative cell viability (MTS, relative to control)) [%]	viability at 100 µM (SW480 cells; 100 μM, SW480, drug day 5, assay day 7, read-out: percent relative cell viability (MTS, relative to control)) [%]
O=c1[nH]cc(F)c(=O)[nH]1 [5-FU, 5-Fluorouracil]	18	81	22	50	9	48				
CNC(=O)c1cc(Oc2ccc(NC(=O)Nc3ccc(Cl)c(C(F)(F)F)c3)c(F)c2)ccn1 [Regorafenib]							< 25	~48	< 25	< 25
